Experimental findings from publication PMC12848304, “Small-molecule inhibitor of C‑terminal HSP90 dimerization modulates autophagy and functions synergistically with mTOR inhibition to kill cisplatin-resistant cancer cells” (Cell Death & Disease, 2025) are described below.

In one assay the target is T1, HSP90α CTD (Homo sapiens, UniProt P07900).
T1 construct: gene HSP90AA1; recombinant C-terminal domain (CTD)
The assay is described as follows: thermal shift assay (SYPRO orange, […]) with recombinant HSP90α CTD; supported by BS3 cross-linking (loss of CTD dimers) and CETSA. In kind it is binding. The settings on record: read-out: thermal shift assay (SYPRO orange, 100 μM) with recombinant HSP90α CTD; supporte.

In another assay the target is T2, HSP90β (Homo sapiens, UniProt P08238).
T2 construct: gene HSP90AB1; C-terminal domain (CTD); with PPID
T2 sequence (P08238 553-724 limits assumed): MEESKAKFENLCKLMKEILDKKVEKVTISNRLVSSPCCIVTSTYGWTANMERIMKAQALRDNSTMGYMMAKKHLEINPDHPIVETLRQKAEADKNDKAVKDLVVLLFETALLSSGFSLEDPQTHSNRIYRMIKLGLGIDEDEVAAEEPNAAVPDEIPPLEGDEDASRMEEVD
T2 sequence (Q08752 2-370 partner): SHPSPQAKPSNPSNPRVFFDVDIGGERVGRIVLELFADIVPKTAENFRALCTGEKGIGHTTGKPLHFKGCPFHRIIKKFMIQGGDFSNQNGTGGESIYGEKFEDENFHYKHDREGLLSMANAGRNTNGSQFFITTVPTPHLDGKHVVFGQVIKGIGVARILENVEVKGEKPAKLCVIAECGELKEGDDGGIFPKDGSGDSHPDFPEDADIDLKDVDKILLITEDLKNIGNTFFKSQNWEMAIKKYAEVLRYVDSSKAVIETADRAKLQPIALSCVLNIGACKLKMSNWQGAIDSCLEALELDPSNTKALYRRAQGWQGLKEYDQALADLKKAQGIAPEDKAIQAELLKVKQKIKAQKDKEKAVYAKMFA
The assay is described as follows: TR-FRET HSP90 CTD/PPID interaction assay ([…]). In kind it is biochemical.

T1 sequence (P07900 626-732 limits assumed): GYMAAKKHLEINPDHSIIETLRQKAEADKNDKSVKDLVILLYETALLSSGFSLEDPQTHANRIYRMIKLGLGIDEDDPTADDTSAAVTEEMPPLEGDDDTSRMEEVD

Take `CCC(C)n1c(C(=O)Nc2cnc(C(=O)NC)n(CC(C)C)c2=O)ncc(NC(=O)c2ncc(N)c(=O)n2Cc2ccc(OC)cc2)c1=O` (centres unmarked) [compound 2, VWK147]: the ΔTm at 100 µM at HSP90α CTD was -8.43 ± 2.75 °C. Moreover, the “TR-FRET HSP90 CTD/PPID interaction assay (1 mM)” value on HSP90β was “VWK147 disrupts the binding of Peptidyl prolyl isomerase D (PPID, CTD-specific co-chaperone) to the CTD of recombinant HSP90β”.
